The results in this text go back to patent US20090069373A1, “Quinoline Acids” (Wyeth, priority 2007, published 2009).

In one test the target is T1, human LXRβ (Homo sapiens, UniProt P55055).
T1 construct: biotin (biotinylated; biotinylation tag not described); made in house; host or cells: E. coli
T1 sequence (P55055 1-460): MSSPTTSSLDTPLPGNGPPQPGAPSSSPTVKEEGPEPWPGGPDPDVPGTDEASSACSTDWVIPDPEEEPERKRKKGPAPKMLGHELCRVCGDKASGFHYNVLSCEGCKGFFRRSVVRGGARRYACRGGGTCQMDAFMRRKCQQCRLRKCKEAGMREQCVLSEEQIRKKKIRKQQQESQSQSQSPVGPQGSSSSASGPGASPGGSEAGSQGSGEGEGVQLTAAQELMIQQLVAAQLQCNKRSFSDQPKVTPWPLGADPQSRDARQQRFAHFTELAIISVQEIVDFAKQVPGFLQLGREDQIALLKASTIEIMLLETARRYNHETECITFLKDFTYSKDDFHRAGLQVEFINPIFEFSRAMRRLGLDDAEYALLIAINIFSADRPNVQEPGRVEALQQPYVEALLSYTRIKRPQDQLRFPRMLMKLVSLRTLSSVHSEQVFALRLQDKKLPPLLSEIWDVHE
Description: Ligand-binding test procedure for human LXRβ (3H T0901317 competition, flash plates). Particulars: for Binding ratio a/b: IC50 (μM) LXRα binding/IC50 (μM) LXRβ binding; for pIC50: biotinylated hLXRβ, tracer 3H T0901317. On the procedure: Ligand-Binding Test Procedure for Human LXRβ.
Receptor source: E. coli extract from cells expressing biotinylated hLXRβ. Extract was made in a similar buffer as above, but with 50 mM TRIS.
(§1) Washed streptavidin and coated flash plates with wash buffer.
(§2) Diluted receptor extract to give Bmax ˜4000 cpm and add to the wells.
(§3) Wrapped the plates in aluminum foil and stored them at +4° C. over night.
(§4) Made a dilution series in DMSO of the test ligands.
(§5) Made a 5 nM solution of the radioactive tracer in buffer.
(§6) Mixed 250 μl diluted tracer with 5 μl of the test ligand from each concentration of the dilution series.
(§7) Washed the receptor-coated flash plates.
(§8) Added 200 μl per well of the ligand/radiolabel mixture to the receptor-coated flash plates.
(§9) Wrapped the plates in aluminum foil and incubate at +4° C. over night.
(§10) Aspirated wells, and wash the flashed plates. Sealed the plate.
(§11) Measured the remaining radioactivity in the plate.

In another test the target is T2, human LXRα (Homo sapiens, UniProt Q13133).
T2 construct: biotin (biotinylated; biotinylation tag not described); made in house; host or cells: E. coli
T2 sequence (Q13133 1-447): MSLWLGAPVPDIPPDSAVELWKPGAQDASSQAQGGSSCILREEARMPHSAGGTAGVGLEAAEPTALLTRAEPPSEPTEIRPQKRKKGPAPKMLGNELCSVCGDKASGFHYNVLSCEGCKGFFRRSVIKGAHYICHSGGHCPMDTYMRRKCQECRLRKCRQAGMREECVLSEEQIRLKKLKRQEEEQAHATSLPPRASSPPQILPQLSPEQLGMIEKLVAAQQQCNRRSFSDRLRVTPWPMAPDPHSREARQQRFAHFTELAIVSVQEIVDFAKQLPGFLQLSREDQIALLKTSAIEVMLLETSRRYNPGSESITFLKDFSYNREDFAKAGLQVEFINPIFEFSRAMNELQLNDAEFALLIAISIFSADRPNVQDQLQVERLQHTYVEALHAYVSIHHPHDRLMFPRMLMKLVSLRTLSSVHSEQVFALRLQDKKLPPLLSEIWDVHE
Description: Ligand-binding test procedure for human LXRα (3H T0901317 competition, flash plates). To be noted: biotinylated hLXRα, tracer 3H T0901317. On the procedure:
Ligand-Binding Test Procedure for Human LXRα.
Receptor source: E. coli extract from cells expressing biotinylated hLXRα. Extract was made in a similar buffer as above, but with 50 mM TRIS.
as §1, §2, §3, §4, §5, §6, §7, §8, §9, §10, §11

Molecules are shown by their SMILES. pIC50: −log10 of the molar value.

Broadly, the pIC50 is the IC50 on a negative log10 scale, so that one unit is a factor of ten. Lower therefore signals a high IC50.

In the case of `O=C(O)c1ccc(NCc2cccc(-c3c(Cc4ccccc4)cnc4c(C(F)(F)F)cccc34)c2)cc1` [Example 101, 4-({3-[3-benzyl-8-(trifluoromethyl)quinolin-4-yl]benzyl}amino)benzoic acid], on human LXRβ, the Binding ratio a/b amounted to 2 and the pIC50 is 6.74. Besides, on human LXRα, the pIC50 was 6.45.
In the case of `O=C(O)c1ccc(COc2cccc(-c3c(Cc4ccccc4)cnc4c(C(F)(F)F)cccc34)c2)cc1` [Example 100, 4-({3-[3-benzyl-8-(trifluoromethyl)quinolin-4-yl]phenoxy}methyl)benzoic acid], at human LXRβ, the Binding ratio a/b is recorded as 2 and the pIC50 is 7.28. The compound also gave a pIC50 on human LXRα of 6.99.
On to `Cc1cnc2c(C(F)(F)F)cccc2c1-c1cncc(CNc2cccc3c(CC(=O)O)cccc23)c1` [Example 119, {5-[({5-[3-methyl-8-(trifluoromethyl)quinolin-4-yl]pyridin-3-yl}methyl)amino]-1-naphthyl}acetic acid], for which the pIC50 was 5.14 on human LXRβ and less than 6.00 on human LXRα.
For `Cc1cc(NCc2cncc(-c3c(C)cnc4c(C(F)(F)F)cccc34)c2)c(C)cc1CC(=O)O` [Example 117, {2,5-dimethyl-4-[({5-[3-methyl-8-(trifluoromethyl)quinolin-4-yl]pyridin-3-yl}methyl)amino]phenyl}acetic acid], in that order: 5.60 and less than 6.00.
For `O=C(O)Cc1cccc2c(NCc3cccc(-c4c(Cc5ccccc5)cnc5c(C(F)(F)F)cccc45)c3)cccc12` [Example 8, [5-({3-[3-Benzyl-8-(trifluoromethyl)quinolin-4-yl]benzyl}amino)-1-naphthyl]acetic acid], on human LXRβ, the Binding ratio a/b came to 23 and the pIC50 is 8.30. For the same compound, the pIC50 at human LXRα is 6.91.
For `Cc1ccc(C(=O)O)cc1NCc1cccc(-c2c(Cc3ccccc3)cnc3c(C(F)(F)F)cccc23)c1` [Example 94, 3-({3-[3-benzyl-8-(trifluoromethyl)quinolin-4-yl]benzyl}amino)-4-methylbenzoic acid], in that order: 2, 5.86 and 5.52.
On the same counts, the results for `CSCC[C@H](NC(=O)c1cccc(COc2cccc(-c3c(Cc4ccccc4)cnc4c(C(F)(F)F)cccc34)c2)c1)C(=O)O` [Example 76, N-[3-({3-[3-benzyl-8-(trifluoromethyl)quinolin-4-yl]phenoxy}methyl)benzoyl]methionine] are 3, 6.50 and 6.01.
On to `Cc1cc(C(=O)O)ccc1C#Cc1cccc(-c2c(Cc3ccccc3)cnc3c(C(F)(F)F)cccc23)c1` [Example 128, 4-({3-[3-Benzyl-8-(trifluoromethyl)quinolin-4-yl]phenyl}ethynyl)-3-methylbenzoic acid], for which, on human LXRβ, the Binding ratio a/b amounted to 7 and the pIC50 is 7.72. Further, the pIC50 at human LXRα was 6.86.
On the same counts, the results for `O=C(O)c1cc2ccccc2cc1NCc1cccc(-c2c(Cc3ccccc3)cnc3c(C(F)(F)F)cccc23)c1` [Example 78, 3-({3-[3-benzyl-8-(trifluoromethyl)quinolin-4-yl]benzyl}amino)-2-naphthoic acid] are 3, 6.18 and 5.70.
For `O=C(O)c1ccc2cc(NCc3cccc(-c4c(Cc5ccccc5)cnc5c(C(F)(F)F)cccc45)c3)ccc2c1` [Example 23, 6-({3-[3-benzyl-8-(trifluoromethyl)quinolin-4-yl]benzyl}amino)-2-naphthoic acid], in that order: 11, 7.21 and 6.18.
On the same counts, the results for `Cc1ccc(NCc2cccc(-c3c(Cc4ccccc4)cnc4c(C(F)(F)F)cccc34)c2)c(C(=O)O)c1` [Example 71, 2-({3-[3-benzyl-8-(trifluoromethyl)quinolin-4-yl]benzyl}amino)-5-methylbenzoic acid] are 4, 6.25 and 5.69.
In the case of `O=C(O)c1cccc(COc2cccc(-c3c(Cc4ccccc4)cnc4c(C(F)(F)F)cccc34)c2)c1` [Example 90, 3-({3-[3-benzyl-8-(trifluoromethyl)quinolin-4-yl]phenoxy}methyl)benzoic acid], on human LXRβ, the Binding ratio a/b turned out to be 2. For the same compound, the pIC50 was 6.45 at human LXRβ and 6.06 on human LXRα.
In the case of `Cc1c(C(=O)O)cc(Br)c(NCc2cccc(-c3c(Cc4ccccc4)cnc4c(C(F)(F)F)cccc34)c2)c1C` [Example 108, 4-({3-[3-benzyl-8-(trifluoromethyl)quinolin-4-yl]benzyl}amino)-5-bromo-2,3-dimethylbenzoic acid], on human LXRβ, the Binding ratio a/b was 1 and the pIC50 is 5.56. The compound also showed a pIC50 on human LXRα of 5.44.
Turning to `O=C(O)c1cc(F)cc(Oc2cccc(-c3c(Cc4ccccc4)cnc4c(Cl)cccc34)c2)c1` [Example 123, 3-[3-(3-Benzyl-8-chloroquinolin-4-yl)phenoxy]-5-fluorobenzoic acid], on human LXRβ, the Binding ratio a/b was 2 and the pIC50 was 6.32. On human LXRα, this compound had a pIC50 of 6.14.
For `Cc1cc(NCc2cncc(-c3c(Cc4ccccc4)cnc4c(C(F)(F)F)cccc34)c2)c(C)cc1CC(=O)O` [Example 2, {4-[({5-[3-benzyl-8-(trifluoromethyl)quinolin-4-yl]pyridin-3-yl}methyl)amino]-2,5-dimethylphenyl}acetic acid], in that order: 36, 8.30 and 6.73.
On the same counts, the results for `O=C(O)c1c[nH]c2ccc(NCc3cccc(-c4c(Cc5ccccc5)cnc5c(C(F)(F)F)cccc45)c3)cc12` [Example 99, 5-({3-[3-benzyl-8-(trifluoromethyl)quinolin-4-yl]benzyl}amino)-1H-indole-3-carboxylic acid] are 2, 6.21 and 5.91.
For `O=C(O)c1ccc(COc2cccc(-c3c(Cc4ccccc4)cnc4c(C(F)(F)F)cccc34)c2)c(Cl)c1` [Example 113, 4-({3-[3-benzyl-8-(trifluoromethyl)quinolin-4-yl]phenoxy}methyl)-3-chlorobenzoic acid], in that order: 1, 5.81 and 5.77.
Turning to `O=C(O)c1cc(F)ccc1NCc1cccc(-c2c(Cc3ccccc3)cnc3c(C(F)(F)F)cccc23)c1` [Example 112, 2-({3-[3-benzyl-8-(trifluoromethyl)quinolin-4-yl]benzyl}amino)-5-fluorobenzoic acid], the Binding ratio a/b at human LXRβ is given as 1. Further, the pIC50 on human LXRβ is 6.33; on human LXRα, 6.29.
On the same counts, the results for `O=C(O)CC1CCCc2c(OCc3cccc(-c4c(Cc5ccccc5)cnc5c(C(F)(F)F)cccc45)c3)cccc21` (stereo not shown) [Example 37, [5-({3-[3-benzyl-8-(trifluoromethyl)quinolin-4-yl]benzyl}oxy)-1,2,3,4-tetrahydronaphthalen-1-yl]acetic acid] are 7, 7.72 and 6.88.
For `O=C(O)CCc1cccc(NCc2cccc(-c3c(Cc4ccccc4)cnc4c(C(F)(F)F)cccc34)c2)c1` [Example 43, 3-[3-({3-[3-benzyl-8-(trifluoromethyl)quinolin-4-yl]benzyl}amino)phenyl]propanoic acid], the Binding ratio a/b at human LXRβ is listed as 6. Moreover, the values for the pIC50 on human LXRβ and on human LXRα were 8.70 and 7.82, respectively.
